Data published in patent US20110117169A1, “METHODS AND COMPOSITIONS FOR CAPTURE OF CELLS” (AFFINERGY, INC., priority 2009, published 2011).
Ends that are not written are not given here. spacer = not defined here

What was measured:
human dermal fibroblasts = assay: Fibroblast binding to peptide-modified collagen coated plates; format: cell-based; details: for fibroblast binding compared to unmodified collagen: higher concentrations / FIG. 28 summary
Procedure: The experiment was performed according to the following procedure. Cell-binding peptide (SEQ ID NO: 4) was covalently attached to soluble collagen as described herein at Example 7. 96-well plates were coated with various amounts of unmodified or the peptide-modified collagen (177 μmol peptide/g collagen) over night at 4° C. Unbound collagen was removed and the plates were blocked for 1 h. After washing, 5,000 human dermal fibroblasts were added per well in serum-free medium for 30 min at 37° C. The plates were washed, and bound cells were detected with […]-GLO (PROMEGA) using a luminometer. At 0.0025 μg collagen, fibroblast binding was increased 11-fold for the peptide-modified collagen compared to unmodified collagen (see FIG. 28).

HUVECs [1] = assay: Retention of HUVECs under shear stress on coated coverslips; format: cell-based, human
Procedure: The ability of the collagen modified with endothelial cell binding peptide SEQ ID NO: 4 to retain HUVECs under shear stress was analyzed as follows. Glass cover-slips were coated with peptide conjugated collagen or unmodified collagen and seeded with HUVECs. Coverslips were secured in a polycarbonate slide with six 1 cm diameter wells enabling simultaneous testing of materials. A closed loop peristaltic pump was used to expose the samples to flow conditions for 30 minutes at laminar flow rates up to 12 dynes/cm^2 in PBS containing 2% FBS. The number of cells retained on the cover slip was determined using […]-GLO (INVITORGEN) and a luminometer.

HUVECs [2] = assay: HUVEC capture and retention on plates coated with peptide-modified collagen ([…]-GLO); format: cell-based, human
Procedure: After washing, 10,000 HUVECs were added per well in serum free medium for 30 min at 37° C. The plates were washed 3 times with PBS containing 2% FBS, and captured cells were detected with […]-GLO (INVITROGEN) using a luminometer and a standard curve. […] For FIG. 21B, the collagen was extracted in gel loading buffer, separated by PAGE, and total protein was stained with SIMPLYBLUE (INVITROGEN). […] Plates with captured HUVECs were prepared as described in FIG. 20A. […]

hMSCs [3] = assay: Binding of peptide-modified collagen to hMSCs, FACS with Neutravidin-PE; design: species or system human; details: 20,000 hMSCs, 1 hr on ice, serial dilution from 25 μM
Procedure: In a separate experiment, cell binding peptide SEQ ID NO: 4 was covalently attached to collagen as described herein and tested for its ability to bind hMSCs using an experimental setup similar to that described above. Briefly, collagen with covalently attached SEQ ID NO: 4 peptide was serial diluted (starting from 25 μM) and mixed with 20,000 hMSCs in 2% FBS/PBS. After 1 hr incubation on ice, cells were washed twice with 2% FBS/PBS and cells bound to the collagen with covalently attached SEQ ID NO: 4 peptide were detected with Neutravidin-PE. Cells were washed, transferred into 96-well plates for FACS analysis.

hMSCs [4] = assay: Adherence of hMSCs to polypropylene in presence of peptide-modified collagen; format: cell-based, human; details: after binding in presence of the collagen
hMSCs [5] = assay: hMSC attachment to PEEK discs in collagen solution ([…]-GLO); format: cell-based, human; details: 2 h at 37° C., highest concentration of collagen
Procedure: To test whether collagen having a covalently attached cell binding peptide could increase cell adhesion to PEEK discs, PEEK discs were coated with collagen and hMSC attachment was measured. Industrial-grade PEEK discs were obtained from […] POLYMERS, Inc Houston, Tex. The discs were machined with a steel punch for a 0.5 cm diameter (thickness of 0.125). Discs (n=2 per group) were coated by two methods. In the first method, the discs were incubated overnight with varying concentrations of cell binding peptide SEQ ID NO: 4-modified collagen (88.5 μmol peptide/g of collagen). The discs were washed to remove unattached peptide and collagen, and the attached biotinylated peptide was detected with Neutravidin-HRP in an ELISA assay. […] In the second method, uncoated PEEK discs were placed in a solution of unmodified or peptide-modified collagen and hMSCs. After 2 h at 37° C., discs were moved to a new plate and washed with PBS to remove unbound cells. The number of attached cells was counted by […]-GLO. […] On the other hand, peptide-conjugated collagen increased cell attachment relative to both uncoated and collagen-coated PEEK. At the highest concentration of peptide-modified collagen, 26% of the cells were attached, whereas only 9% of cells attached to the uncoated discs and 11% to the discs coated with unmodified collagen.

ECFCs = assay: Capture of ECFCs in flow on coated coverslips (parallel plate flow chamber); format: cell-based, human; details: 2×10^6 ECFC circulated 2 h at 37° C.
Procedure: The ability of the collagen modified with endothelial cell binding peptide SEQ ID NO: 4 to capture ECFCs in flow was analyzed as follows. Glass coverslips were coated with unmodified collagen or cell binding peptide modified-collagen and mounted in a polycarbonate parallel plate flow chamber. PBS/10% FBS was circulated through a closed 150 ml system to block the coverslips. Approximately 2×10^6 ECFC were injected into the system and were circulated for 2 h at 37° C. Coverslips were washed in PBS to remove loosely adhering cells, the remaining cells on the coverslips were lysed in CELLTITERGLO (INVITROGEN, CA), and the cells enumerated by luminescence against a standard curve.

In the case of “peptide-modified collagen: SEQ ID NO: 4 with spacer and lysine covalently attached to soluble bovine type I collagen via BS^3 crosslinking reagent (SSFWDVCQGDGTCYGGGSR-{spacer-Lys}; cysteine pairing not given here; reading uncertain; also: covalently attached to soluble bovine type I collagen via BS3 crosslinker, spacer not given here)”, the “increase in fibroblast binding compared to unmodified collagen” value (human dermal fibroblasts; 0.0025 μg collagen, 5,000 fibroblasts per well, 30 min at 37° C.) is reported as 11 fold, the “fibroblast binding compared to unmodified collagen” value (human dermal fibroblasts; listed as SEQ ID NO: 4 peptide-modified collagen) is reported as “Increased cell binding” and the “fibroblast binding compared to unmodified collagen” value (human dermal fibroblasts; listed as cell binding peptide (SEQ ID NO: 4)-modified collagen) is reported as “enhanced binding”. The “effect of shear stress on cell capture” value (HUVECs [1]; 30 minutes, laminar flow up to 12 dynes/cm^2) was “did not significantly affect cell capture”, the “HUVECs captured compared to unmodified collagen” value (HUVECs [1]; coated glass cover-slips, PBS containing 2% FBS) was “about 3 fold” and the “HUVECs retained compared to unmodified collagen after agitation” value (HUVECs [2]; 1 hour with agitation in PBS containing 2% FBS) was 7 fold. For the same substance, the “increase in HUVEC retention over unmodified collagen” value (HUVECs [2]; 10,000 HUVECs per well, serum free medium, 30 min at 37° C.) was 3 fold, the “increase in fluorescence signal compared to control” value (hMSCs [3]) was about 100 fold and the “hMSCs retained on the walls of polypropylene plates” value (hMSCs [4]) was about 80%. The “cells attached to PEEK discs” value (hMSCs [5]) was 26% and the “ECFCs captured in flow compared to unmodified collagen” value (ECFCs) was “about 20 fold”.
